Measurements taken from ChEMBL document CHEMBL1127182, “DNA gyrase inhibitory and antibacterial activity of some flavones(1)” (Bioorg Med Chem Lett, 1993).
≈ marks a conversion by molar mass, not a printed value. Where “and” joins values, the source holds several entries; their conditions need not be identical. Identical values can stand only once.

Tests used:
[1] = system: Escherichia coli; experiment: Tested for antibacterial activity as minimum inhibitory concentration against Escherichia coli KL-16 in the absence of polymyxin B nonapeptide (PBMN) at 0 ug/mL; type: functional
[2] = system: Escherichia coli; experiment: Tested for antibacterial activity as minimum inhibitory concentration against Escherichia coli KL-16 in the presence of polymyxin B nonapeptide (PBMN) at 1 ug/mL; type: functional
[3] = system: Escherichia coli; experiment: Tested for antibacterial activity as minimum inhibitory concentration against Escherichia coli-ss in the absence of polymyxin B nonapeptide (PBMN) at 0 ug/mL; type: functional
[4] = system: Escherichia coli; experiment: Tested for antibacterial activity as minimum inhibitory concentration against Escherichia coli-ss in the presence of polymyxin B nonapeptide (PBMN) at 1 ug/mL; type: functional
[5] = target: DNA gyrase (Escherichia coli, UniProt P0AES4+P0AES6); experiment: In vitro antibacterial activity was determined as inhibitory concentration causing 50% DNA-gyrase supercoiling inhibition (SCI); type: protein-complex assay
[6] = system: Stenotrophomonas maltophilia; experiment: Tested for antibacterial activity as minimum inhibitory concentration against Pseudomonas maltophilia 1057 in the presence of polymyxin B nonapeptide (PBMN) at 0 ug/mL; type: functional
[7] = system: Stenotrophomonas maltophilia; experiment: Tested for antibacterial activity as minimum inhibitory concentration against Pseudomonas maltophilia 1057 in the presence of polymyxin B nonapeptide (PBMN) at 1 ug/mL; type: functional
[8] = system: Salmonella typhimurium; experiment: Tested for antibacterial activity as minimum inhibitory concentration against Salmonella Typhimurium 701 in the absence of polymyxin B nonapeptide (PBMN) at 0 ug/mL; type: functional, Salmonella enterica subsp. enterica serovar Typhimurium; conditions: Salmonella enterica
[9] = system: Staphylococcus epidermidis; experiment: Tested for antibacterial activity as minimum inhibitory concentration against Staphylococcus epidermidis strain OC2603; type: functional
[10] = system: Staphylococcus aureus; experiment: Tested for antibacterial activity as minimum inhibitory concentration against Staphylococcus aureus strain OC6538; type: functional
[11] = system: Salmonella typhimurium; experiment: Tested for antibacterial activity as minimum inhibitory concentration against Salmonella Typhimurium 701 in the presence of polymyxin B nonapeptide (PBMN) at 1 ug/mL; type: functional, Salmonella enterica subsp. enterica serovar Typhimurium
[12] = Escherichia coli, read-out: MIC
[13] = Staphylococcus aureus, read-out: MIC
[14] = Salmonella enterica, read-out: MIC

SMILES | MIC [1] [µg/mL] | MIC [2] [µg/mL] | MIC [3, 12] [µg/mL] | MIC [4, 12] [µg/mL] | IC50 [5] | MIC [6] [µg/mL] | MIC [7] [µg/mL] | MIC [8] [µg/mL] | MIC [9] [µg/mL] | MIC [10, 13] [µg/mL] | MIC [11, 14] [µg/mL] | MIC ([11]; Salmonella enterica) [µg/mL] | MIC [3] [µg/mL] | MIC [4] [µg/mL] | MIC [10] [µg/mL] | MIC [11]
O=c1c(O)c(-c2cc(O)c(O)c(O)c2)oc2cc(O)cc(O)c12 [MYRICETIN] | > 125 | 15.6 | 62.5 (≈ 196 µM) | 3.9 | 707 µM | > 125 | 125 | > 125 | 62.5 (≈ 196 µM) | 125 (≈ 393 µM) | 15.6 | – | – | – | – | –
CC1COc2c(N3CCN(C)CC3)c(F)cc3c(=O)c(C(=O)O)cn1c23 (stereo not given) [OFLOXACIN] | 0.0625 (≈ 0.173 µM) | < 0.015 | < 0.5 | < 0.5 | – | 2 | 1 | 0.125 (≈ 0.346 µM) | ≤ 0.5 | ≤ 0.5 | 0.0625 | – | – | – | – | –
O=c1c(O)c(-c2ccc(O)c(O)c2)oc2cc(O)ccc12 [FISETIN] | > 125 | 15.6 | 62.5 (≈ 218 µM) | 3.9 | 291 µM | > 125 | > 125 | > 125 | > 125 | > 125 | 31.2 | – | – | – | – | –
COc1cc(-c2oc3cc(O)cc(O)c3c(=O)c2O)cc(OC)c1OC | > 125 | > 125 | > 125 | > 125 | > 1390 µM | > 125 | > 125 | > 125 | > 125 | > 125 | > 125 | – | – | – | – | –
CCn1cc(C(=O)O)c(=O)c2ccc(C)nc21 [NALIDIXIC ACID] | 2 (≈ 8.61 µM) | 0.5 | 0.5 (≈ 2.15 µM) | 0.125 | – | 62.5 | 15.6 | 3.9 (≈ 16.8 µM) | 250 (≈ 1080 µM) | 500 (≈ 2150 µM) | 2 | – | – | – | – | –
O=c1cc(-c2ccc(O)cc2)oc2cc(O)cc(O)c12 [APIGENIN] | > 125 | > 125 | > 125 | 7.8 | 250 µM | > 125 | > 125 | > 125 | > 125 | > 125 | 15.6 | – | – | – | – | –
O=c1c(O)c(-c2ccc(O)c(O)c2)oc2cc(O)cc(O)c12 [QUERCETIN] | > 125 | – | 62.5 (≈ 207 µM) | 2 | 182 µM and 156 µM | > 125 | > 125 | > 125 | – | 62.5 (≈ 207 µM) | – | – | 31.25 (≈ 103 µM) | 1 | >125 | 15.6 µg/mL and 31.25 µg/mL
COc1cccc(-c2cc(=O)c3c(O)cc(O)cc3o2)c1 | > 125 | > 125 | > 125 | > 125 | > 1760 µM | > 125 | > 125 | > 125 | > 125 | > 125 | > 125 | – | – | – | – | –
O=c1cc(-c2ccccc2)oc2c(O)c(O)ccc12 [7,8-DIHYDROXYFLAVONE] | > 125 | 62.5 | 125 (≈ 492 µM) | 7.8 | 351 µM | > 125 | 125 | > 125 | 31.2 (≈ 123 µM) | – | – | 15.6 | – | – | 62.5 (≈ 246 µM) | –
O=c1oc2c(O)c(O)cc3c(=O)oc4c(O)c(O)cc1c4c23 [ELLAGIC ACID] | > 125 | 7.8 | > 125 | 2 | 10.9 µM | > 125 | > 125 | > 125 | > 125 | > 125 | 31.2 | – | – | – | – | –

Further lines, with some results ahead:

MIC [1] [µg/mL] | MIC [2] [µg/mL] | MIC [3, 12] [µg/mL] | MIC [4, 12] [µg/mL] | IC50 [5] | MIC [6] [µg/mL] | MIC [7] [µg/mL] | MIC [8] [µg/mL] | MIC [9] [µg/mL] | MIC [10, 13] [µg/mL] | MIC [11, 14] [µg/mL] | MIC ([11]; Salmonella enterica) [µg/mL] | SMILES | MIC [3] [µg/mL] | MIC [4] [µg/mL] | MIC [10] [µg/mL] | MIC [11]
> 125 | > 125 | > 125 | > 125 | > 2100 µM | > 125 | > 125 | > 125 | > 125 | > 125 | > 125 | – | O=c1c(O)c(-c2ccccc2)oc2ccccc12 [FLAVONOL] | – | – | – | –
> 125 | > 125 | > 125 | > 125 | > 1760 µM | > 125 | > 125 | > 125 | > 125 | > 125 | > 125 | – | COc1cc2oc(-c3ccccc3)cc(=O)c2c(O)c1O | – | – | – | –
> 125 | 31.2 | 125 (≈ 414 µM) | 3.9 | 1380 µM | > 125 | > 125 | > 125 | 500 (≈ 1650 µM) | 500 (≈ 1650 µM) | 7.8 | – | O=c1c(O)c(-c2cc(O)cc(O)c2)oc2cc(O)cc(O)c12 | – | – | – | –
> 125 | > 125 | > 125 | > 125 | > 1850 µM | > 125 | > 125 | > 125 | > 125 | > 125 | > 125 | – | O=c1c(O)c(-c2ccccc2)oc2cc(O)cc(O)c12 [GALANGIN] | – | – | – | –
> 125 | > 125 | > 125 | > 125 | > 1970 µM | > 125 | > 125 | > 125 | > 125 | > 125 | > 125 | – | O=c1cc(-c2ccccc2)oc2cc(O)cc(O)c12 [CHRYSIN] | – | – | – | –
> 125 | > 125 | > 125 | > 125 | > 1670 µM | > 125 | > 125 | > 125 | > 125 | > 125 | > 125 | – | COc1ccc(-c2oc3cc(O)cc(O)c3c(=O)c2O)cc1 [KAEMPFERIDE] | – | – | – | –
